GI50 and TGI data for 5 molecules are collected here from PubChem BioAssay (NCI).

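Where inhibition never reached the appropriate level, the endpoint shown equals the highest concentration tested. Otherwise, values were interpolated linearly from a five-concentration, 48-hour dose response in 96-well plates. Here, GI50 denotes the concentration required for 50% inhibition of growth. TGI: concentration producing complete growth inhibition.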

What all share (experiment): NCI anticancer screen, dose series, 48 h
The test system of assay [1] is DLD-1 colon.
The subject of assay [2] is KM20L2 colon.
Assay [3] relates to HCC-2998 colon.
Assay [4] relates to HS 578T breast.
The test system of assay [5] is HOP-18 NSCLC.
In assay [6] the test system is BT-549 breast.
For assay [7], the system named is M19-MEL melanoma.
For assay [8], the system named is DMS 114 small cell lung.
The subject of assay [9] is SNB-78 CNS.
Assay [10] relates to DU-145 prostate.

For the molecule `[Au+].[Au+].[Au+].[c-]1nccn1Cc1ccccc1.[c-]1nccn1Cc1ccccc1.[c-]1nccn1Cc1ccccc1`, the GI50 is 1960 nM in [1]; 26.9 µM in [2]; 14.4 µM in assay [3]; 19.8 µM in assay [4]; 2870 nM in assay [5]; 5.35 µM in assay [6]. For the same molecule, the GI50 in assay [7] was 2010 nM; in [8], 1650 nM; in assay [9], 2840 nM; in [10] it was 17.7 µM. Further, the TGI in assay [1] is 3.7 µM; in [2] it was above 73 µM; in [3], 37.9 µM; in assay [4] it was 64 µM; in [5], 8.77 µM; in [6], 42.5 µM. Further, the TGI in assay [7] stood at 3.96 µM; in assay [8], 3.13 µM; in [9], 8.63 µM; in assay [10], 32.4 µM.
Turning to `Cc1ccc(C2(O)CC(c3ccc([N+](=O)[O-])o3)=NN2C(=O)COc2ccc(Cl)cc2)cc1` (stereo unspecified), the TGI in [1] is above 100 µM; in assay [2] it was 44.1 µM; in assay [3] it was 16.8 µM; in assay [5] it was above 100 µM; in [7], 19.7 µM; in assay [8] it was 83.8 µM. The molecule also returned a TGI in assay [9] of 58.9 µM.
With `Nc1ccn(C2(CO)C=C(CO)C(O)C2O)c(=O)n1` (stereo unspecified), the TGI in assay [1], in [2], in [3], in assay [5], in assay [7] and in assay [8] was above 25.8 µM each time. Also, in [9], the TGI was above 25.8 µM.
For the molecule `COc1ccc2[nH]c3c4c(ccc3c2c1)C(=O)C=CC4=O`, the TGI came out at 8.78 µM in [1]; 43.1 µM in assay [2]; 45.9 µM in assay [3]; 71.5 µM in assay [4]; 22.7 µM in assay [5]; 84.9 µM in assay [6]. The TGI in assay [7] is 32.7 µM; in [8], 27 µM; in [9] it was 37.1 µM; in [10], above 100 µM.
Take `CC12CCCCC1(C)C2Sc1ccccc1` (stereo unspecified): the TGI in assay [1] is above 100 µM; in assay [2], above 100 µM; in [3], above 100 µM; in [5] it was above 100 µM; in assay [7], above 94.5 µM; in [8] it was above 77.8 µM. Further, the TGI in assay [9] is above 80.1 µM.
